These results are taken from publication PMC7180948, “New Insights into 4-Anilinoquinazolines as Inhibitors of Cardiac Troponin I–Interacting Kinase (TNNi3K)” (Molecules, 2020).

What all share (assay): biochemical
Holding throughout (parameters): KINOMEscan competition binding panel (Eurofins DiscoverX), single concentration, % inhibition
Holding throughout (settings): read-out: 7 at 1 µM % inhibition

In one assay the target is DAPK1 (Homo sapiens, UniProt P53355). An outline of the steps: (§1)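 Values come from single-concentration (1 µM) profiling in the Eurofins DiscoverX KINOMEscan competition-binding platform, which covers over 400 kinases.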
In another assay the target is PLK2 (Homo sapiens, UniProt Q9NYY3). An outline of the steps:
as §1

The next assay deals with EPHA2 (Homo sapiens, UniProt P29317). An outline of the steps:
as §1

Another assay concerns the target MAP4K4 (Homo sapiens, UniProt O95819). An outline of the steps:
as §1

A further assay deals with AKT2 (Homo sapiens, UniProt P31751). An outline of the steps:
as §1

Another assay has as its target GSK3A (Homo sapiens, UniProt P49840). An outline of the steps: as §1
The target in a further assay is HIPK2 (Homo sapiens, UniProt Q9H2X6). Put shortly: as §1
Another assay concerns the target SGK3 (Homo sapiens, UniProt Q96BR1). Put shortly: as §1
A further assay has as its target T1, NDR2 (Homo sapiens, UniProt Q9Y2H1).
T1 construct: gene STK38L
An outline of the steps: as §1

Another assay concerns the target TESK1 (Homo sapiens, UniProt Q15569). An outline of the steps:
as §1

A further assay concerns the target IRAK3 (Homo sapiens, UniProt Q9Y616). Put shortly: as §1
The target in another assay is MAP4K2 (Homo sapiens, UniProt Q12851). An outline of the steps: as §1
Another assay addresses PIK3CA(Q546K) (Homo sapiens, UniProt P42336, Q546K). An outline of the steps: as §1
The target of the next assay is MST1R (Homo sapiens, UniProt Q04912). An outline of the steps:
as §1

Assay [1] concerns the target T2, ABL1(H396P)-nonphosphorylated (Homo sapiens, UniProt P00519, H396P).
T2 construct: nonphosphorylated
An outline of the steps: as §1

A further assay deals with SIK2 (Homo sapiens, UniProt Q9H0K1). Put shortly:
as §1

The target of another assay is AURKB (Homo sapiens, UniProt Q96GD4). Put shortly: as §1
A further assay addresses PIK3CA(I800L) (Homo sapiens, UniProt P42336, I800L). Put shortly:
as §1

Another assay concerns the target NLK (Homo sapiens, UniProt Q9UBE8). An outline of the steps: as §1
The next assay deals with CSNK2A1 (Homo sapiens, UniProt P68400). Put shortly:
as §1

The target of a further assay is BTK (Homo sapiens, UniProt Q06187). Put shortly:
as §1

Another assay addresses SGK2 (Homo sapiens, UniProt Q9HBY8). Put shortly:
as §1

A further assay deals with PDPK1 (Homo sapiens, UniProt O15530). Put shortly: as §1
The next assay addresses FLT3(D835V) (Homo sapiens, UniProt P36888, D835V). Put shortly: as §1

Chain of SGK3 (Q96BR1 whole entry): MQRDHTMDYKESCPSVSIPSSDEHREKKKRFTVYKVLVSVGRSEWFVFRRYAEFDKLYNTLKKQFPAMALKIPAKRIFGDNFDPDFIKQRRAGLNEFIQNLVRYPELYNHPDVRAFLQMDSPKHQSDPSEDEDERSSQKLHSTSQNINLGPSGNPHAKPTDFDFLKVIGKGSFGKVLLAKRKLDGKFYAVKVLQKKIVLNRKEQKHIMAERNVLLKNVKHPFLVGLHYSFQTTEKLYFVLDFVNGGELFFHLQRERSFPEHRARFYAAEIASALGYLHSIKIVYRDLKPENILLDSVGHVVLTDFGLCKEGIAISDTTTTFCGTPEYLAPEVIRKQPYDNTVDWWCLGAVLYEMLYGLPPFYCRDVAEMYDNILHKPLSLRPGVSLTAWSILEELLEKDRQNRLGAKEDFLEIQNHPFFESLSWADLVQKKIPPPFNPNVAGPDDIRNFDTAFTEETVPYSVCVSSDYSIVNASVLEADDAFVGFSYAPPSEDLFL
Chain of BTK (Q06187 whole entry): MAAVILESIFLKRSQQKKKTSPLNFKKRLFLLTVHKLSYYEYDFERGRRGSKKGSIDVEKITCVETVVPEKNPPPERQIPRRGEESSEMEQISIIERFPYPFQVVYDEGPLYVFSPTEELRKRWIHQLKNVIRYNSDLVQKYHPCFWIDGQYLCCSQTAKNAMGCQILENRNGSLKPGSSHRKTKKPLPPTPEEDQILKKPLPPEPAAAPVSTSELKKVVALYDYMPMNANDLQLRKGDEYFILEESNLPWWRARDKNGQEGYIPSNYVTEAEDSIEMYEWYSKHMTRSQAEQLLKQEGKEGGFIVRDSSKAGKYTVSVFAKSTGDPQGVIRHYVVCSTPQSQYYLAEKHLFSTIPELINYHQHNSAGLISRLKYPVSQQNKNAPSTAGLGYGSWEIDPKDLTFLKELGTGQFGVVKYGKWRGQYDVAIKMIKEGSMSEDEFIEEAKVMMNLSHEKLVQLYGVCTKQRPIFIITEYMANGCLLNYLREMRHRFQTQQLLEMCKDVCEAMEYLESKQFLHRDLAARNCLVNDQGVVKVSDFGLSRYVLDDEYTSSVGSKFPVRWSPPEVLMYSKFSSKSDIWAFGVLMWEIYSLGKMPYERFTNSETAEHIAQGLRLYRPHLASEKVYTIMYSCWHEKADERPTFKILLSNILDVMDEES
Chain of PLK2 (Q9NYY3 whole entry): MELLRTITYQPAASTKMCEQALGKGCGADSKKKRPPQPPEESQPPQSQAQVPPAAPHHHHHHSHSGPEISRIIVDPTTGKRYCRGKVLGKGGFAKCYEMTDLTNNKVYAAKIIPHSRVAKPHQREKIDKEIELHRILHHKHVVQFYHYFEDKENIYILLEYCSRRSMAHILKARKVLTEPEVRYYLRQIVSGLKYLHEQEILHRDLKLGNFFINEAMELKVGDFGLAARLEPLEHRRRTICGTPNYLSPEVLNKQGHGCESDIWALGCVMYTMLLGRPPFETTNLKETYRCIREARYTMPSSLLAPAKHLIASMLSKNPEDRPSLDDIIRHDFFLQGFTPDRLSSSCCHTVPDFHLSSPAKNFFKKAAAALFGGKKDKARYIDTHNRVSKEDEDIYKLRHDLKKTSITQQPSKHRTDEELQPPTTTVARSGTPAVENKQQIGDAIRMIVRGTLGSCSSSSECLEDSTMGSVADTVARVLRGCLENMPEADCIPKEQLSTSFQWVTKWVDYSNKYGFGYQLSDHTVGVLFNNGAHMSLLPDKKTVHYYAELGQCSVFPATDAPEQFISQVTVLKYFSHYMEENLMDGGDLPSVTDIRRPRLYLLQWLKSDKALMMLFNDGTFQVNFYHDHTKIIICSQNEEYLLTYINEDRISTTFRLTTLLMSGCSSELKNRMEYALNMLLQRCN
Chain of NLK (Q9UBE8 whole entry): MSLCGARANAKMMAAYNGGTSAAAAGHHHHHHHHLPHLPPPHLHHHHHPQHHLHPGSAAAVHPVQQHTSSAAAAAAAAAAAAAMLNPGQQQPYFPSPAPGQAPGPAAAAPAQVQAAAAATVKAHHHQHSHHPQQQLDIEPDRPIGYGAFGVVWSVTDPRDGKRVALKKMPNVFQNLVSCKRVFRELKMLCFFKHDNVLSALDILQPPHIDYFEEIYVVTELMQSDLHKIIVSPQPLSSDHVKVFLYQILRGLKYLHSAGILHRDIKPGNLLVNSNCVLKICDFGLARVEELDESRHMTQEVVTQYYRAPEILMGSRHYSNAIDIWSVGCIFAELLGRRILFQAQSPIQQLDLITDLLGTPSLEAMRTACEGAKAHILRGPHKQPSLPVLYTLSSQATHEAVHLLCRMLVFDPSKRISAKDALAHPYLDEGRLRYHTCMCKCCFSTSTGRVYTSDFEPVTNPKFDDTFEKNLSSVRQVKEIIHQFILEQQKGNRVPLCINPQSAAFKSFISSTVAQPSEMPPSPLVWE
Chain of PDPK1 (O15530 whole entry): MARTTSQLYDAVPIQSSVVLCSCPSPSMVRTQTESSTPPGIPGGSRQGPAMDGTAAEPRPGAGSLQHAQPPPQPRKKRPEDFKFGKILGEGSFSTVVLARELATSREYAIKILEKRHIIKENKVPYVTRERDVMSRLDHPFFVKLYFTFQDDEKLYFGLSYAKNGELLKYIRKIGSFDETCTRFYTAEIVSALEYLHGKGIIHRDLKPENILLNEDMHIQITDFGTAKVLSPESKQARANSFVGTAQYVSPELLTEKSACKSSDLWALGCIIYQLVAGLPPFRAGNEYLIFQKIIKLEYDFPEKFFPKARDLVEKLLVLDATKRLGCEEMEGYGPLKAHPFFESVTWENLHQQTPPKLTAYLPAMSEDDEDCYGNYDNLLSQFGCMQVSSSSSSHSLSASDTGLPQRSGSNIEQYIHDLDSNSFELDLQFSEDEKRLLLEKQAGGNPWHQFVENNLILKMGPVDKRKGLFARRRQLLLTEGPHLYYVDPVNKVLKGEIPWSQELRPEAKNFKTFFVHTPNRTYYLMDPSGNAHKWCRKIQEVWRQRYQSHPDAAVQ
Chain of CSNK2A1 (P68400 whole entry): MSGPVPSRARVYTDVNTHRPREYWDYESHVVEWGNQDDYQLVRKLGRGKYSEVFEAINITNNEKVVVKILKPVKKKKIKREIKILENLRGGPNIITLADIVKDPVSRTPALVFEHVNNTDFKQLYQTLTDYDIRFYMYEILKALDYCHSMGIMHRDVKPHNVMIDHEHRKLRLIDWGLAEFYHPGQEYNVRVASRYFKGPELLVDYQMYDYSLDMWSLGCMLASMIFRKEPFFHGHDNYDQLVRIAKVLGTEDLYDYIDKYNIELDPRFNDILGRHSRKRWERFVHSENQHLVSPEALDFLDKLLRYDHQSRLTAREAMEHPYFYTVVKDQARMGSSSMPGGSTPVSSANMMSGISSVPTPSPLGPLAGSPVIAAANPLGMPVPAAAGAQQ
Chain of EPHA2 (P29317 whole entry): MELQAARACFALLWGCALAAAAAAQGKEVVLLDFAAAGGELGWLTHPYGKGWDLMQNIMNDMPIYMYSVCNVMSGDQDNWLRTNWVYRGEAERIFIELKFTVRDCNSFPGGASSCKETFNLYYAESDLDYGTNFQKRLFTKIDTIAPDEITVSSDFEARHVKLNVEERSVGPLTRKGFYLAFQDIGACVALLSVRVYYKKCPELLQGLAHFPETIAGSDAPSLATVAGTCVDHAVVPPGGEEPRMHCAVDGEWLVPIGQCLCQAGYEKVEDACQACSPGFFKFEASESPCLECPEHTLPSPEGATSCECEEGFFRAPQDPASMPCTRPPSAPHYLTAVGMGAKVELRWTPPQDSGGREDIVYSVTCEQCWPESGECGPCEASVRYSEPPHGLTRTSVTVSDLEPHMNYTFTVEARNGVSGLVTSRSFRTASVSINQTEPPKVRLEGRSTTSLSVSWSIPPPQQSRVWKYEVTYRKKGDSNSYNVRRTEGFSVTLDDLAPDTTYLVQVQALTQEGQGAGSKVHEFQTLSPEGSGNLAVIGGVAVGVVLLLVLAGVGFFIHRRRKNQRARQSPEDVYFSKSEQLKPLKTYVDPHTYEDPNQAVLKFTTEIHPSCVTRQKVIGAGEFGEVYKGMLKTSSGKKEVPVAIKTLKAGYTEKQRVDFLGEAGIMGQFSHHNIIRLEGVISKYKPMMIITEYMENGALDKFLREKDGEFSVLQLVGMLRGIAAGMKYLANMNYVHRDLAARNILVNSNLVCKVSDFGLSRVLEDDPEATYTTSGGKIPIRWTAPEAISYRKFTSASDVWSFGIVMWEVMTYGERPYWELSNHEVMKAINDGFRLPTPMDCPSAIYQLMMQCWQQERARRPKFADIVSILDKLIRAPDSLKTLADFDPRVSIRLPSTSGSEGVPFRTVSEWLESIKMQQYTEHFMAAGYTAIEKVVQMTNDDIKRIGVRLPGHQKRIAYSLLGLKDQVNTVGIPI
Chain of AURKB (Q96GD4 whole entry): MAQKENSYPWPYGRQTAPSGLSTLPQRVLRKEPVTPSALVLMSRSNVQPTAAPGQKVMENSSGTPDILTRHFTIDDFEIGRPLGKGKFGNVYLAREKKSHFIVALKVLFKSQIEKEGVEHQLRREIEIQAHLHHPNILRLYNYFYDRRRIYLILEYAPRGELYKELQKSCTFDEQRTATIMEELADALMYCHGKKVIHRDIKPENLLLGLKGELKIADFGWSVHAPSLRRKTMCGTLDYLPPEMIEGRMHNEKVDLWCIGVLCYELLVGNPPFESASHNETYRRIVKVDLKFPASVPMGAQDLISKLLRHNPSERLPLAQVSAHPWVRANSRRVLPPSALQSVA
Chain of SGK2 (Q9HBY8 whole entry): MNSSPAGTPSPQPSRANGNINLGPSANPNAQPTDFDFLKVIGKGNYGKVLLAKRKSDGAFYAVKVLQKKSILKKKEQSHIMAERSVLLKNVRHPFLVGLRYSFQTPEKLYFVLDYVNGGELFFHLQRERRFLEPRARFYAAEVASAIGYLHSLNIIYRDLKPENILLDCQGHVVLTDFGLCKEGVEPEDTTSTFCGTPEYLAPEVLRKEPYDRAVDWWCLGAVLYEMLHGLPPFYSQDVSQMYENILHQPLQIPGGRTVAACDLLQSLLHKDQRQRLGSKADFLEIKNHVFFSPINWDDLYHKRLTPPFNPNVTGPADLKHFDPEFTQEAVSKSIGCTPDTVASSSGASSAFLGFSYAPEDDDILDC

For the compound `CNS(=O)(=O)c1ccc(N(C)C)c(Nc2ncnc3cc(OC)c(OC)cc23)c1` [compound 7, 3-((6,7-dimethoxyquinazolin-4-yl)amino)-4-(dimethylamino)-N-methylbenzenesulfonamide], the inhibition (in general, the relative decrease from the control value, in per cent) at 1 µM at DAPK1 amounted to 0%; on PLK2 it was 13%; at EPHA2 it was 0%; on MAP4K4, 0%; on AKT2 it was 0%; at GSK3A, 0%. The inhibition at 1 µM at HIPK2 amounted to 0%; on SGK3, 1%; on NDR2 it was 9%; on TESK1, 0%; on IRAK3, 0%; on MAP4K2, 41%. In addition, the inhibition at 1 µM is 36% at PIK3CA(Q546K); 3% on MST1R; 73% in [1]; 69% on SIK2; 0% on AURKB; 56% at PIK3CA(I800L). Moreover, the inhibition at 1 µM stood at 24% at NLK; 0% on CSNK2A1; 54% on BTK; 0% at SGK2; 0% at PDPK1; 91.8% on FLT3(D835V).
